Reference: the NIST ThermoML archive (doi:10.1021/je700671t)
Numbers after ± are expanded uncertainties.

Assays:
[1] = 101 kPa, Liquid; for viscosity: Capillary tube (Ostwald / Ubbelohde) method
[2] = xn = mol fraction of the nth substance listed; conditions: 101 kPa, Liquid, x2 = 0; for viscosity: Capillary tube (Ostwald / Ubbelohde) method

CN(C)C=O [dimethylformamide]
mass density ([1]; 283.15 K): 958.96 ± 0.25 kg/m3
mass density ([1]; 288.15 K): 954.17 ± 0.26 kg/m3
mass density ([1]; 293.15 K): 949.39 ± 0.27 kg/m3
viscosity ([1]; 293.15 K): 0.864 ± 0.01 mPa·s
mass density ([1]; 298.15 K): 944.6 ± 0.27 kg/m3
mass density ([1]; 303.15 K): 939.83 ± 0.28 kg/m3
viscosity ([1]; 303.15 K): 0.766 ± 0.009 mPa·s
mass density ([1]; 308.15 K): 935.05 ± 0.29 kg/m3
mass density ([1]; 313.15 K): 930.27 ± 0.29 kg/m3
viscosity ([1]; 313.15 K): 0.684 ± 0.009 mPa·s
mass density ([1]; 318.15 K): 925.49 ± 0.3 kg/m3
mass density ([1]; 323.15 K): 920.71 ± 0.31 kg/m3
viscosity ([1]; 323.15 K): 0.617 ± 0.009 mPa·s
mass density ([1]; 328.15 K): 915.92 ± 0.32 kg/m3
mass density ([1]; 333.15 K): 911.13 ± 0.32 kg/m3
viscosity ([1]; 333.15 K): 0.559 ± 0.009 mPa·s
mass density ([1]; 338.15 K): 906.32 ± 0.33 kg/m3
mass density ([1]; 343.15 K): 901.51 ± 0.34 kg/m3
viscosity ([1]; 343.15 K): 0.51 ± 0.009 mPa·s
mass density ([1]; 348.15 K): 896.69 ± 0.34 kg/m3
mass density ([1]; 353.15 K): 891.86 ± 0.35 kg/m3
viscosity ([1]; 353.15 K): 0.47 ± 0.009 mPa·s

O [water] + CN(C)C=O
mass density ([2]; 283.15 K): 999.7 ± 0.13 kg/m3
viscosity ([2]; 293.15 K): 1.026 ± 0.01 mPa·s
viscosity ([2]; 303.15 K): 0.817 ± 0.009 mPa·s
viscosity ([2]; 313.15 K): 0.67 ± 0.009 mPa·s
viscosity ([2]; 323.15 K): 0.561 ± 0.009 mPa·s
mass density ([2]; 323.15 K): 988.03 ± 0.14 kg/m3
mass density ([2]; 328.15 K): 985.69 ± 0.15 kg/m3
viscosity ([2]; 333.15 K): 0.48 ± 0.009 mPa·s
mass density ([2]; 333.15 K): 983.19 ± 0.15 kg/m3
mass density ([2]; 338.15 K): 980.55 ± 0.16 kg/m3
viscosity ([2]; 343.15 K): 0.419 ± 0.008 mPa·s
mass density ([2]; 343.15 K): 977.76 ± 0.16 kg/m3
mass density ([2]; 348.15 K): 974.84 ± 0.16 kg/m3
viscosity ([2]; 353.15 K): 0.371 ± 0.008 mPa·s
mass density ([2]; 353.15 K): 971.79 ± 0.17 kg/m3
